{
  "source": "patent US12565522B2",
  "about": "“Micropeptide HMMW and application thereof” (NANJING ANJI BIOTECHNOLOGY CO., LTD., priority 2019, dated 2026)",
  "format_in_all_cases": "cell-based, human",
  "key": {"[1]": {"tested_on": "A431 cells of skin cancer", "assay": "cells", "conditions": "1 to 32 μM, vs negative control, dose-dependent", "description": "(§1) After SCC4 cells of head and neck cancer, SW579 cells of thyroid cancer, A549 cells of lung cancer, TE13 cells of esophageal squamous cell carcinoma, MGC803 cells of stomach cancer, MDA-MB-231 cells of breast cancer, UOK262 cells of kidney cancer and A431 cells of skin cancer of human were cultured in a 37 DEG C. 5% CO2 incubator until the density was 90%, they were digested and collected by trypsin, the cells were re-suspended in a culture solution and counted under a microscope, the concentration of the cells was adjusted to 3.0×10^4 cells/mL, and the cell suspension was inoculated to 96-well plates, 100 μL per well, and cultured in a 37 DEG C. 5% CO2 incubator overnight. After the cells were completely adherent, different doses of micropeptides HMMW I to IX were added as drug groups, taxol was used as a positive control group, and the culture solution without any drug was used as a blank control group. They were diluted with the culture solution till predetermined concentrations. The diluted solutions were added to 96-well plates, respectively, 100 μL per well, and incubated in a 37 DEG C. 5% CO2 incubator for 48 h. 20 μL of 5 mg/mL MTT was added to each well of the 96-well plates, and the culture was continued for 4 h. The culture medium was sucked away, and 100 μL of DMSO was added to each well for dissolution. Absorbance was detected by ELIASA at detection wavelength 570 nm and reference wavelength 630 nm, and proliferation inhibition (PI) was calculated according to Formula PI (%)=1−drug group/negative group. The test was independently repeated three times. The results obtained from the test were expressed with mean±SD and statistical t test was done. *P<0.05 means significant difference, and **P<0.01 means very significant difference."}, "[2]": {"tested_on": "A549 cells of lung cancer", "assay": "cells", "conditions": "1 to 32 μM, vs negative control, dose-dependent", "description": "as §1"}, "[3]": {"tested_on": "MDA-MB-231 cells of breast cancer", "assay": "cells", "conditions": "1 to 32 μM, vs negative control, dose-dependent", "description": "as §1"}, "[4]": {"tested_on": "MGC803 cells of stomach cancer", "assay": "cells", "conditions": "1 to 32 μM, vs negative control, dose-dependent", "description": "as §1"}, "[5]": {"tested_on": "SCC4 cells of head and neck cancer", "assay": "cells", "conditions": "1 to 32 μM, vs negative control, dose-dependent", "description": "as §1"}, "[6]": {"tested_on": "SW579 cells of thyroid cancer", "assay": "cells", "conditions": "1 to 32 μM, vs negative control, dose-dependent", "description": "as §1"}, "[7]": {"tested_on": "TE13 cells of esophageal squamous cell carcinoma", "assay": "cells", "conditions": "1 to 32 μM, vs negative control, dose-dependent", "description": "as §1"}, "[8]": {"tested_on": "UOK262 cells of kidney cancer", "assay": "cells", "conditions": "1 to 32 μM, vs negative control, dose-dependent", "description": "as §1"}, "[9]": {"tested_on": "A431 cells of skin cancer", "assay": "transwell migration test", "conditions": "24 h"}, "[10]": {"tested_on": "A549 cells of lung cancer", "assay": "transwell migration test", "conditions": "24 h"}, "[11]": {"tested_on": "MDA-MB-231 cells of breast cancer", "assay": "transwell migration test", "conditions": "24 h"}, "[12]": {"tested_on": "MGC803 cells of stomach cancer", "assay": "transwell migration test", "conditions": "24 h"}, "[13]": {"tested_on": "SCC4 cells of head and neck cancer", "assay": "transwell migration test", "conditions": "24 h"}, "[14]": {"tested_on": "SW579 cells of thyroid cancer", "assay": "transwell migration test", "conditions": "24 h"}, "[15]": {"tested_on": "UOK262 cells of kidney cancer", "assay": "transwell migration test", "conditions": "24 h"}},
  "note": "No end group written: not given here.",
  "data": [
    {"substance": "MERAGVPGFSPRRSSVEAKMQSTSCSVRKSSTVTAWPAVVLLLSWGQRRGG-OH [HMMW-I]", "values": [
      {"measurement": "inhibition of proliferation", "setting": "[1]", "result": "significantly inhibit"},
      {"measurement": "inhibition of proliferation", "setting": "[2]", "result": "significantly inhibit"},
      {"measurement": "inhibition of proliferation", "setting": "[3]", "result": "significantly inhibit"},
      {"measurement": "inhibition of proliferation", "setting": "[4]", "result": "significantly inhibit"},
      {"measurement": "inhibition of proliferation", "setting": "[5]", "result": "significantly inhibit"},
      {"measurement": "inhibition of proliferation", "setting": "[6]", "result": "significantly inhibit"},
      {"measurement": "inhibition of proliferation", "setting": "[7]", "result": "significantly inhibit"},
      {"measurement": "inhibition of proliferation", "setting": "[8]", "result": "significantly inhibit"},
      {"measurement": "migration inhibition rate", "setting": "[9]; dose 1 μM", "result": 33.19, "unit": "%"},
      {"measurement": "migration inhibition rate", "setting": "[9]; dose 4 μM", "result": 55.17, "unit": "%"},
      {"measurement": "migration inhibition rate", "setting": "[9]; dose 16 μM", "result": 73.22, "unit": "%"},
      {"measurement": "migration inhibition rate", "setting": "[10]; dose 1 μM", "result": 35.00, "unit": "%"},
      {"measurement": "migration inhibition rate", "setting": "[10]; dose 4 μM", "result": 53.95, "unit": "%"},
      {"measurement": "migration inhibition rate", "setting": "[10]; dose 16 μM", "result": 73.46, "unit": "%"},
      {"measurement": "migration inhibition rate", "setting": "[11]; dose 1 μM", "result": 28.06, "unit": "%"},
      {"measurement": "migration inhibition rate", "setting": "[11]; dose 4 μM", "result": 50.34, "unit": "%"},
      {"measurement": "migration inhibition rate", "setting": "[11]; dose 16 μM", "result": 75.38, "unit": "%"},
      {"measurement": "migration inhibition rate", "setting": "[12]; dose 1 μM", "result": 27.61, "unit": "%"},
      {"measurement": "migration inhibition rate", "setting": "[12]; dose 4 μM", "result": 53.45, "unit": "%"},
      {"measurement": "migration inhibition rate", "setting": "[12]; dose 16 μM", "result": 76.80, "unit": "%"},
      {"measurement": "migration inhibition rate", "setting": "[13]; dose 1 μM", "result": 17.85, "unit": "%"},
      {"measurement": "migration inhibition rate", "setting": "[13]; dose 4 μM", "result": 42.97, "unit": "%"},
      {"measurement": "migration inhibition rate", "setting": "[13]; dose 16 μM", "result": 77.00, "unit": "%"},
      {"measurement": "migration inhibition rate", "setting": "[14]; dose 1 μM", "result": 19.81, "unit": "%"},
      {"measurement": "migration inhibition rate", "setting": "[14]; dose 4 μM", "result": 51.03, "unit": "%"},
      {"measurement": "migration inhibition rate", "setting": "[14]; dose 16 μM", "result": 70.98, "unit": "%"},
      {"measurement": "migration inhibition rate", "setting": "[15]; dose 1 μM", "result": 15.39, "unit": "%"},
      {"measurement": "migration inhibition rate", "setting": "[15]; dose 4 μM", "result": 42.38, "unit": "%"},
      {"measurement": "migration inhibition rate", "setting": "[15]; dose 16 μM", "result": 71.47, "unit": "%"}
    ]}
  ]
}
